The values that follow come from patent US9187497B2, “Substituted pyrido[3,2-e]pyrrolo[1,2-a]pyrazines as inhibitors of poly(ADP-ribose)polymerase (PARP)” (Takeda Phamaceutical Company Limited, priority 2009, dated 2015).

pIC50: −log10 of the molar value. Some results are limits rather than exact numbers.

The target of experiment [1] is T1, PARP (Homo sapiens, UniProt P09874).
T1 construct: purchased Trevigen 4684-096-01 (enzyme); kit 4684-096-K HT
In words: PARP ELISA colorimetric assay of inhibition of PARP catalytic activity (IC50). The class given is biochemical. To be noted: pIC50=-log(IC50), IC50 in molar concentration; ELISA-based PARP kit, 10 minutes of catalysis. As to the method:
Inhibition Constant (IC50) from PARP ELISA
Inhibition of PARP catalytic activity was determined by use of an ELISA-based colorimetric PARP/Apoptosis Assay kit (part number 4684-096-K HT, Trevigen). To each histone coated well in the 96-well plate supplied by the manufacturer (part number 4677-096-P) is added 39 μl of PARP buffer (part number 4671-096-02) and 1 μl of test compound dissolved in DMSO (diluted serially 3-fold 11 times). After mixing, 5 μl of 0.1 nM PARP (part number 4684-096-01) is added and the solution allowed to stand at ambient temperature for 10 minutes. PARP catalysis is initiated with the addition of 5 μl of 100 μM β-nicotinamide adenine dinucleotide (NAD+) (part number 4684-096-02) with activated DNA (part number 4671-096-06). After 10 minutes of catalysis the reaction is quenched by solvent aspiration followed by irrigation of the assay wells 4 times with phosphate buffered saline (PBS) containing 0.1% t-Octylphenoxypolyethoxyethanol (Triton® X-100). Mouse Anti-poly ADP ribose (PAR) monoclonal antibody, goat antimouse immunoglobulin G (IgG)-horse radish peroxidase (HRP) conjugate and HRP substrate are added according to the manufacture's specifications to generate a colorimetric signal proportional to PARP catalytic activity. An IC50 for the test compound is calculated from the equation Absorbance=(Amax−background)/(1+([cmpd]/IC50)^n)+background fit to the 12 point test compound concentration gradient via nonlinear least squares.

Experiment [2] relates to Jurkat cell line. The experiment is described as follows: PARP cellular chemopotentiation assay (MTS cell viability with and without TMZ). Type of experiment: cell-based. Particulars: ratio of EC50 for inhibition of cell viability without and with 100 μM TMZ; Jurkat cells, 96 hours of treatment. As to the method: Potentiation Factor (PF50) Determination from PARP Cellular Chemopotentiation Assay
Jurkat cell line was maintained according to the supplier (American Type Culture Collection (Rockville, Md.)). Cells were seeded in 96-well tissue culture microplates at 10,000 cells per well and cultured for 24 hours prior to addition of compounds, TMZ (Temozolomide) or DMSO (dimethylsulfoxide) vehicle. After 96 hours of treatment, the conversion of MTS ([3-(4,5-dimethylthiazol-2-yl)-5-(3-carboxymethoxyphenyl)-2-(4-sulfophenyl)-2H-tetrazolium, inner salt], Promega, Madison, Wis.) by metabolically active cells was determined through measuring the OD490 nm with a Spectramax microplate reader (Molecular Devices, San Diego, Calif.). To generate concentration-response curves, cells were treated in duplicate with a range of serial compound dilutions (final DMSO concentration was 0.5%) in the absence or presence of 100 μM TMZ chemoreagent. The percentage of viable cells per well was calculated by correction for background and normalizing against DMSO-treated cells. EC50 values for inhibition of cell viability were calculated using XLfit4 MicroSoft Excel curve-fitting software. Chemopotentiation factor PF50 was calculated as the ratio of EC50 values of cells co-treated without and with TMZ, respectively.

T1 sequence (P09874 whole entry): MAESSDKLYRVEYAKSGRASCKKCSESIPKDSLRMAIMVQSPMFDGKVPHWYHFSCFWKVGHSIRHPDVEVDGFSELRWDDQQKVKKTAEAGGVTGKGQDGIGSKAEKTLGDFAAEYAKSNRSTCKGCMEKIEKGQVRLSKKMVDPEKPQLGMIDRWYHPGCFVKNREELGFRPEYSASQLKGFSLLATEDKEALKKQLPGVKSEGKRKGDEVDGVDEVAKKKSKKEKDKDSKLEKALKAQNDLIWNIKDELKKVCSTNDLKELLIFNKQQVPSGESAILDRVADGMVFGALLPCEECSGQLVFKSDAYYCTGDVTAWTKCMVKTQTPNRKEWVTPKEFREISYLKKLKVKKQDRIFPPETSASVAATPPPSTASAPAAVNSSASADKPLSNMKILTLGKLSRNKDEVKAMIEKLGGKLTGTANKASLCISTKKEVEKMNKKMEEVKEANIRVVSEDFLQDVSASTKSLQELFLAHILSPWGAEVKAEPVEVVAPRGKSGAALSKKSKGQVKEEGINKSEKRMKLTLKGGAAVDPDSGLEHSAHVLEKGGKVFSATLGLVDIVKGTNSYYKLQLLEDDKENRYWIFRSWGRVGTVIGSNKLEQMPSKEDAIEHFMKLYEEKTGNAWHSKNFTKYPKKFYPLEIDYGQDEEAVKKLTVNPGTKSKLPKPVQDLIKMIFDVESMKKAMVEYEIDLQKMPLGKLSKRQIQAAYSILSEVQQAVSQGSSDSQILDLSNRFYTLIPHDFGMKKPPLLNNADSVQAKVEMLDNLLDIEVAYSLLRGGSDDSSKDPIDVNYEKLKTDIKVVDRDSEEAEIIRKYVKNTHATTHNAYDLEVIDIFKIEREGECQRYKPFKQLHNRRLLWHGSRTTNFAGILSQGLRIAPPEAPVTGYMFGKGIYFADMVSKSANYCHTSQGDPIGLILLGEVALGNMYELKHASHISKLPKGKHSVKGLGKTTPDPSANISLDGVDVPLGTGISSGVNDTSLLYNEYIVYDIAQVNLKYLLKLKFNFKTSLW

The term pIC50 denotes −log10 of the IC50, conventionally taken in molar units. The compound `CCNC(=O)c1ccc(N2CCN(Cc3cnc4c(c3)NC(=O)[C@@H]3CCCN43)CC2)c(Cl)c1` [Compound 127, (S)-3-chloro-N-ethyl-4-(4-((6-oxo-5,6,6a,7,8,9-hexahydropyrido[3,2-e]pyrrolo[1,2-a]pyrazin-3-yl)methyl)piperazin-1-yl)benzamide] gave a pIC50 in experiment [1] of 7.40 to 7.80. Further, the PF50 in experiment [2] is reported as above 500. In experiment [1], `O=C1Nc2cc(CC3CCN(c4ccc(Cl)cc4)CC3)cnc2N2CCC[C@@H]12` [Compound 122, (S)-3-((1-(4-chlorophenyl)piperidin-4-yl)methyl)-6a,7,8,9-tetrahydropyrido[3,2-e]pyrrolo[1,2-a]pyrazin-6(5H)-one] showed a pIC50 of at most 7.30. Further, the PF50 entry in experiment [2] is “≧0”. On the same counts, the results for `CNC(=O)c1ccc(N2CCN(Cc3cnc4c(c3)NC(=O)[C@@H]3CCCCN43)CC2)cc1` [Compound 74, (S)—N-methyl-4-(4-((6-oxo-6,6a,7,8,9,10-hexahydro-5H-dipyrido[1,2-a:3′,2′-e]pyrazin-3-yl)methyl)piperazin-1-yl)benzamide] are at least 7.90 and above 10. On the same counts, the results for `Cc1cc(C#N)ccc1N1CCN(Cc2cnc3c(c2)NC(=O)[C@@H]2CCCN32)CC1` [Compound 129, (S)-3-methyl-4-(4-((6-oxo-5,6,6a,7,8,9-hexahydropyrido[3,2-e]pyrrolo[1,2-a]pyrazin-3-yl)methyl)piperazin-1-yl)benzonitrile] are 7.40 to 7.80 and above 500.

Compound `N#Cc1ccc(N2CCN(Cc3cnc4c(c3)NC(=O)[C@@H]3CSCCN43)CC2)cc1` [Compound 90, (R)-4-(4-((6-oxo-5,6,6a,7,9,10-hexahydropyrido[3,2-e][1,4]thiazino[4,3-a]pyrazin-3-yl)methyl)piperazin-1-yl)benzonitrile] showed a pIC50 in experiment [1] of at least 7.90. Further, the PF50 in experiment [2] was above 10.

In experiment [1], `Cc1ccsc1-c1ccc(N2CCN(Cc3cnc4c(c3)NC(=O)[C@@H]3CCCCN43)CC2)cc1` [Compound 162, (S)-3-((4-(4-(3-methylthiophen-2-yl)phenyl)piperazin-1-yl)methyl)-7,8,9,10-tetrahydro-5H-dipyrido[1,2-a:3′,2′-e]pyrazin-6(6aH)-one] gave a pIC50 of at most 7.30. Same read-out and setting: next, `O=C1Nc2cc(CN3CCN(c4ccc(-c5ccsc5)cc4)CC3)cnc2N2CCCC[C@@H]12` [Compound 146, (S)-3-((4-(4-(thiophen-3-yl)phenyl)piperazin-1-yl)methyl)-7,8,9,10-tetrahydro-5H-dipyrido[1,2-a:3′,2′-e]pyrazin-6(6aH)-one]: 7.40 to 7.80; `Cc1ccnc(-c2ccc(N3CCN(Cc4cnc5c(c4)NC(=O)[C@@H]4CCCCN54)CC3)cc2)c1` [Compound 166, (S)-3-((4-(4-(4-methylpyridin-2-yl)phenyl)piperazin-1-yl)methyl)-7,8,9,10-tetrahydro-5H-dipyrido[1,2-a:3′,2′-e]pyrazin-6(6aH)-one]: 7.40 to 7.80.

In experiment [1], `O=C1Nc2cc(CN3CCN(c4ccc(-c5ccccc5CO)cc4)CC3)cnc2N2CCCC[C@@H]12` [Compound 160, (S)-3-((4-(2′-(hydroxymethyl)biphenyl-4-yl)piperazin-1-yl)methyl)-7,8,9,10-tetrahydro-5H-dipyrido[1,2-a:3′,2′-e]pyrazin-6(6aH)-one] gave a pIC50 of at most 7.30. For the compound `Cc1ccc(-c2ccc(N3CCN(Cc4cnc5c(c4)NC(=O)[C@@H]4CCCCN54)CC3)cc2)s1` [Compound 159, (S)-3-((4-(4-(5-methylthiophen-2-yl)phenyl)piperazin-1-yl)methyl)-7,8,9,10-tetrahydro-5H-dipyrido[1,2-a:3′,2′-e]pyrazin-6(6aH)-one], in experiment [1], the negative logarithm of the IC50 (pIC50) was at most 7.30. On the same count and under the same terms, under `Cc1ccccc1-c1ccc(N2CCN(Cc3cnc4c(c3)NC(=O)[C@@H]3CCCCN43)CC2)cc1` [Compound 154, (S)-3-((4-(2′-methylbiphenyl-4-yl)piperazin-1-yl)methyl)-7,8,9,10-tetrahydro-5H-dipyrido[1,2-a:3′,2′-e]pyrazin-6(6aH)-one] stands at most 7.30; under `COc1ncccc1-c1ccc(N2CCN(Cc3cnc4c(c3)NC(=O)[C@@H]3CCCCN43)CC2)cc1` [Compound 169, (S)-3-((4-(4-(2-methoxypyridin-3-yl)phenyl)piperazin-1-yl)methyl)-7,8,9,10-tetrahydro-5H-dipyrido[1,2-a:3′,2′-e]pyrazin-6(6aH)-one], at most 7.30; under `COc1cnccc1-c1ccc(N2CCN(Cc3cnc4c(c3)NC(=O)[C@@H]3CCCCN43)CC2)cc1` [Compound 153, (S)-3-((4-(4-(3-methoxypyridin-4-yl)phenyl)piperazin-1-yl)methyl)-7,8,9,10-tetrahydro-5H-dipyrido[1,2-a:3′,2′-e]pyrazin-6(6aH)-one], at most 7.30. As to `Cc1cc(-c2ccc(N3CCN(Cc4cnc5c(c4)NC(=O)[C@@H]4CCCCN54)CC3)cc2)ccn1` [Compound 167, (S)-3-((4-(4-(2-methylpyridin-4-yl)phenyl)piperazin-1-yl)methyl)-7,8,9,10-tetrahydro-5H-dipyrido[1,2-a:3′,2′-e]pyrazin-6(6aH)-one], the pIC50 in experiment [1] is 7.40 to 7.80. Same read-out and setting: next, `Nc1cccc(-c2ccc(N3CCN(Cc4cnc5c(c4)NC(=O)[C@@H]4CCCCN54)CC3)cc2)n1` [Compound 145, (S)-3-((4-(4-(6-aminopyridin-2-yl)phenyl)piperazin-1-yl)methyl)-7,8,9,10-tetrahydro-5H-dipyrido[1,2-a:3′,2′-e]pyrazin-6(6aH)-one]: at most 7.30; `COc1cccc(-c2ccc(N3CCN(Cc4cnc5c(c4)NC(=O)[C@@H]4CCCCN54)CC3)cc2)n1` [Compound 156, (S)-3-((4-(4-(6-methoxypyridin-2-yl)phenyl)piperazin-1-yl)methyl)-7,8,9,10-tetrahydro-5H-dipyrido[1,2-a:3′,2′-e]pyrazin-6(6aH)-one]: at most 7.30. As for `O=C1Nc2cc(CN3CCN(c4ccc(-c5cnccn5)cc4)CC3)cnc2N2CCCC[C@@H]12` [Compound 168, (S)-3-((4-(4-(pyrazin-2-yl)phenyl)piperazin-1-yl)methyl)-7,8,9,10-tetrahydro-5H-dipyrido[1,2-a:3′,2′-e]pyrazin-6(6aH)-one], in experiment [1], the pIC50 is 7.40 to 7.80. On the same count and under the same terms, next, `Cc1ccc(-c2ccc(N3CCN(Cc4cnc5c(c4)NC(=O)[C@@H]4CCCCN54)CC3)cc2)cn1` [Compound 164, (S)-3-((4-(4-(6-methylpyridin-3-yl)phenyl)piperazin-1-yl)methyl)-7,8,9,10-tetrahydro-5H-dipyrido[1,2-a:3′,2′-e]pyrazin-6(6aH)-one]: 7.40 to 7.80; `COc1cc(-c2ccc(N3CCN(Cc4cnc5c(c4)NC(=O)[C@@H]4CCCCN54)CC3)cc2)ccn1` [Compound 144, (S)-3-((4-(4-(2-methoxypyridin-4-yl)phenyl)piperazin-1-yl)methyl)-7,8,9,10-tetrahydro-5H-dipyrido[1,2-a:3′,2′-e]pyrazin-6(6aH)-one]: at most 7.30; `O=C1Nc2cc(CN3CCN(c4ccc(-c5ccccc5)cc4)CC3)cnc2N2CCCC[C@@H]12` [Compound 149, (S)-3-((4-(biphenyl-4-yl)piperazin-1-yl)methyl)-7,8,9,10-tetrahydro-5H-dipyrido[1,2-a:3′,2′-e]pyrazin-6(6aH)-one]: at most 7.30. Still for that read-out and setting: under `COc1ccc(-c2ccc(N3CCN(Cc4cnc5c(c4)NC(=O)[C@@H]4CCCCN54)CC3)cc2)cn1` [Compound 150, (S)-3-((4-(4-(6-methoxypyridin-3-yl)phenyl)piperazin-1-yl)methyl)-7,8,9,10-tetrahydro-5H-dipyrido[1,2-a:3′,2′-e]pyrazin-6(6aH)-one] stands at most 7.30. On the same count and under the same terms, under `O=C1Nc2cc(CN3CCN(c4ccc(-c5cccnc5)cc4)CC3)cnc2N2CCCC[C@@H]12` [Compound 158, (S)-3-((4-(4-(pyridin-3-yl)phenyl)piperazin-1-yl)methyl)-7,8,9,10-tetrahydro-5H-dipyrido[1,2-a:3′,2′-e]pyrazin-6(6aH)-one] stands at most 7.30; under `O=C1Nc2cc(CN3CCN(c4ccc(-c5cncnc5)cc4)CC3)cnc2N2CCCC[C@@H]12` [Compound 151, (S)-3-((4-(4-(pyrimidin-5-yl)phenyl)piperazin-1-yl)methyl)-7,8,9,10-tetrahydro-5H-dipyrido[1,2-a:3′,2′-e]pyrazin-6(6aH)-one], at most 7.30.
